{
  "source": "paper doi:10.1101/761585v1",
  "about": "“A simple method to determine the elimination half-life of drugs displaying noncumulative toxicity” (bioRxiv, 2019)",
  "key": {"BALB/c mice [1]": {"system": "BALB/c mice", "experiment": "Multi-dose (non)cumulative toxicity, 11 doses at the MND at 12 hour intervals", "type": "in vivo, mouse", "experimental": "Figure 1. All experiments required to determine the elimination half-life using TOXHL. BALB/c mice (6-8 weeks, 20 g) were used for all experiments. (A) Acute toxicity experiments to determine survival vs. concentration of drug injected intraperitoneally. Determining the maximum nonlethal dose (MND), which is the highest concentration of a drug that causes no mortality, is essential for later noncumulative toxicity experiments. Here, the MND for Pexiganan is 32 mg/kg (blue arrow), and the MND for Ω76 is 64 mg/kg (red arrow). (B) Multi-dose (non)cumulative toxicity determination experiments. Here, mice were intraperitoneally injected with 11 doses of drug (at the MND concentration), at 12 hour intervals over the course of 5 days. All mice treated with Pexiganan died, indicating cumulative toxicity. All mice treated with Ω76 survived, indicating noncumulative toxicity. The difference between the survival outcomes of the Ω76 and Pexiganan cohorts are statistically significant (p=7e-3, Fisher’s test). […] 5 doses at the MND were injected intraperitoneally at Δt of 15, 7.5 and 3 minutes. 67% survival (33% mortality) was observed a Δt = 3 minutes (ΔtM, highlighted in yellow). […] Note that a separate set of similar experiments was described in our previous work[19], but these experiments were only used to assess the toxicity of Ω76.\nCumulative toxicity comprises the lethal effects of multiple doses of drug when injected intraperitoneally at MND concentrations. 10 BALB/c mice (6-8 weeks, 20 g) were treated with 11 doses of Pexiganan, administered at the MND (32 mg/kg) at 12 hour intervals, over the course of 5 days. Despite Pexiganan never exceeding the MND concentration, 100% mortality was observed. […] However, this damage is not reversed within the dosing interval timespan (12 hours), and additional doses only serve to incrementally increase the total damage caused to mice, until a threshold is reached and death occurs.\nFigure 2. Peritonea of BALB/c mice (6-8 weeks, 20 g) treated with Ω76 and Pexiganan for (non)cumulative toxicity experiments. […]"}, "BALB/c mice [2]": {"system": "BALB/c mice", "experiment": "Acute toxicity, single intraperitoneal dose, 5-day survival", "type": "in vivo, mouse", "conditions": "highest single intraperitoneal dose causing no mortality in BALB/c mice observed for 5 days", "experimental": "Acute toxicity comprises the lethal effects of a single dose of a drug, rather than the combined lethal effects of multiple doses of a drug. BALB/c mice (6-8 weeks, 20 g) were injected intraperitoneally with varying doses of Ω76 and Pexiganan, at 2-fold concentration increments. 5 mice per concentration cohort were used. […] Mice treated with both Ω76 and Pexiganan display mortality that increases in a dose-dependent manner. […] However, for TOXHL, determining the maximum nonlethal dose (MND) rather than the LD50 is more important. […] Here, the MND values for Ω76 and Pexiganan are […] (Figure 1A, shown in arrows).\nFigure 1. All experiments required to determine the elimination half-life using TOXHL. BALB/c mice (6-8 weeks, 20 g) were used for all experiments. (A) Acute toxicity experiments to determine survival vs. concentration of drug injected intraperitoneally. Determining the maximum nonlethal dose (MND), which is the highest concentration of a drug that causes no mortality, is essential for later noncumulative toxicity experiments. Here, the MND for Pexiganan is 32 mg/kg (blue arrow), and the MND for Ω76 is 64 mg/kg (red arrow). (B) Multi-dose (non)cumulative toxicity determination experiments. Here, mice were intraperitoneally injected with 11 doses of drug (at the MND concentration), at 12 hour intervals over the course of 5 days. […]"}, "[3]": {"experiment": "Solubility of peptide stocks in saline vs PBS", "type": "physicochemical", "conditions": "20 mg/mL stocks prepared in physiological saline (0.8% NaCl)", "experimental": "For all experiments described in this work, BALB/c mice (6-8 weeks, 20 g) were housed at the Central Animal Facility (CAF, IISc) and fed ad libitum with pellet feed and water. All animal experiments were approved by the Institutional Animal Ethics Committee, IISc (Project No. CAF/Ethics/550/2017). A detailed description of all methods used is provided in the results section. However, it should be noted that 20 mg/mL stocks for both Ω76 and Pexiganan were prepared in physiological saline (0.8% NaCl) and stored at −80 °C. […] These stocks were diluted in saline to obtain the concentration needed for the specific experiment. All intraperitoneal injections were 200 μL in volume, as larger volumes could alter peritoneal elimination kinetics."}},
  "note": "“And” between values parts separate entries of the source, which are not always exact repeats. Identical values can stand only once.",
  "data": [
    {"substance": "Pexiganan", "values": [
      {"measurement": "survival outcome after 11 doses at the MND", "setting": "BALB/c mice [1]; 10 BALB/c mice, 11 intraperitoneal doses at the MND (Pexiganan 32 mg/kg, Ω76 64 mg/kg), 12 hour intervals over 5 days", "value": "died"},
      {"measurement": "mortality after 11 doses at the MND", "setting": "BALB/c mice [1]; 10 BALB/c mice, 11 intraperitoneal doses of Pexiganan at the MND (32 mg/kg), 12 hour intervals over 5 days", "value": 100, "unit": "%"},
      {"measurement": "autopsy finding, peritoneal organs", "setting": "BALB/c mice [1]; BALB/c mice, intraperitoneal doses at the MND at 12 hour intervals (Ω76 11 doses of 64 mg/kg over 5 days; Pexiganan 32 mg/kg until mortality)", "value": "intestinal inflammation is clearly visible"},
      {"measurement": "maximum nonlethal dose (MND)", "setting": "BALB/c mice [2]", "value": "64 mg/kg and 32 mg/kg"},
      {"measurement": "solubility in phosphate buffered saline (PBS) compared with physiological saline", "setting": "[3]", "value": "poorer solubility"}
    ]}
  ]
}
